≈ marks a conversion by molar mass, not a printed value. Like-named read-outs stand apart in the source and are kept apart here.
Columns and labels:
S. aureus = assay: microbe, parasite or virus in culture; assay type: cell-based, Staphylococcus aureus; conditions: Staphylococcus aureus, ATCC25923, read-out: In vitro MIC90
M. intracellulare = assay: MIC against mycobacterial species; assay type: cell-based; conditions: Mycobacterium intracellulare
M. phlei = assay: MIC against mycobacterial species; assay type: cell-based; conditions: Mycolicibacterium phlei
K. rhizophila = assay: microbe, parasite or virus in culture; assay type: cell-based, Kocuria rhizophila; conditions: Kocuria rhizophila, read-out: In vitro MIC90
[1] = cited from earlier work
[2] = cited from earlier work; remark: listed apart in the source
M. chelonae = assay: MIC against mycobacterial species; assay type: cell-based; conditions: Mycobacteroides chelonae
M. tuberculosis = assay: microbe, parasite or virus in culture; assay type: cell-based, Mycobacterium tuberculosis; conditions: for MIC90: Mycobacterium tuberculosis
R. jostii = assay: microbe, parasite or virus in culture; assay type: cell-based, Rhodococcus jostii; conditions: Rhodococcus jostii, read-out: In vitro MIC90
[3] = Cats, cited from earlier work
A. baumannii = assay: microbe, parasite or virus in culture; assay type: cell-based, Acinetobacter baumannii; conditions: Acinetobacter baumannii, ATCC1960, read-out: In vitro MIC90
E. coli = assay: microbe, parasite or virus in culture; assay type: cell-based, Escherichia coli; conditions: Escherichia coli, read-out: In vitro MIC90
[4] = system: representative Gram-positive and Gram-negative bacteria; assay type: cell-based
M. bovis BCG = assay: microbe, parasite or virus in culture; assay type: cell-based, Mycobacterium bovis; conditions: Mycobacterium tuberculosis variant bovis BCG, BCG, read-out: In vitro MIC90
M. gordonae = assay: MIC against mycobacterial species; assay type: cell-based; conditions: Mycobacterium gordonae
M. smegmatis = assay: microbe, parasite or virus in culture; assay type: cell-based, Mycobacterium smegmatis; conditions: Mycolicibacterium smegmatis, MC^2155, read-out: In vitro MIC90
[5] = cited from earlier work; remark: listed apart in the source
M. aurum = assay: MIC against mycobacterial species; assay type: cell-based; conditions: Mycolicibacterium aurum
[6] = 12 mg/kg oral, cited from earlier work
M. avium = assay: MIC against mycobacterial species; assay type: cell-based, Mycobacterium avium; conditions: Mycobacterium avium
[7] = rats; cited from earlier work
[8] = cats; cited from earlier work
S. lividans = assay: microbe, parasite or virus in culture; assay type: cell-based, Streptomyces lividans; conditions: Streptomyces lividans, read-out: In vitro MIC90
P. aeruginosa = assay: microbe, parasite or virus in culture; assay type: cell-based, Pseudomonas aeruginosa; conditions: Pseudomonas aeruginosa, read-out: In vitro MIC90
[9] = system: M. tuberculosis H37Rv and mc25857 (an MDR isolate); assay type: cell-based, Mycobacterium tuberculosis
[10] = Rats, 10 mg/kg oral; cited from earlier work

CO[C@H]1C[C@H](O[C@@H]2/C(C)=C/C[C@@H]3C[C@@H](C[C@]4(CC[C@H](C)[C@@H](C5CCCCC5)O4)O3)OC(=O)[C@@H]3C=C(C)/C(=N/O)[C@H]4OC/C(=C\C=C\[C@@H]2C)[C@]43O)O[C@@H](C)[C@@H]1O [Selamectin]
MIC90 (S. aureus): > 256 µg/mL | MIC (M. intracellulare; ATCC35761, M. intracellulare 1403 ATCC35761): 1 µg/mL (≈ 1.3 µM) | MIC (M. intracellulare; M. intracellulare D673): 2 µg/mL (≈ 2.6 µM) | MIC (M. intracellulare; M. intracellulare FM): 2 µg/mL (≈ 2.6 µM) | MIC (M. intracellulare; M. intracellulare 1403 Trudeau): 1 µg/mL (≈ 1.3 µM) | MIC (M. phlei): 4 µg/mL (≈ 5.19 µM) | MIC90 (K. rhizophila): > 256 µg/mL | AUC ([1]; Dogs female, 6 mg/kg (topical)): 8903 ng·h/mL | Cmax ([1]; Dogs female, 6 mg/kg (topical)): 22.65 ng/mL | T½ ([1]; Dogs female, 6 mg/kg (topical)): 10.73 days | AUC ([1]; Dogs males, 6 mg/kg (topical)): 4609 ng·h/mL | Cmax ([1]; Dogs males, 6 mg/kg (topical)): 12.72 ng/mL | T½ ([1]; Dogs males, 6 mg/kg (topical)): 12.14 days | AUC ([1]; Dogs, 24 mg/kg (topical)): 15229 ng·h/mL | Cmax ([1]; Dogs, 24 mg/kg (topical)): 86.5 ng/mL | AUC ([1]; Dogs, 24 mg/kg oral): 227901 ng·h/mL | Cmax ([1]; Dogs, 24 mg/kg oral): 7630 ng/mL | T½ ([1]; Dogs, 24 mg/kg oral): 1.9 days | LD50 ([2]; mice): > 1,600 mg/kg body weight | dose well tolerated ([2]; mouse, in vivo): up to 300 mg/kg body weight | MIC (M. chelonae): 2 µg/mL (≈ 2.6 µM) | activity in dose response curves compared to ivermectin and doramectin (M. tuberculosis; M. tuberculosis H37Rv and an MDR clinical isolate (FIG. 10)): increased activity | activity in dose response curves (M. tuberculosis; MDR clinical isolates BC-MDR2, BC-MDR3, BC-MDR4 and BC-MDR5 (FIG. 11)): consistently more active than ivermectin | MIC90 (M. tuberculosis; ERDMAN, read-out: In vitro MIC90, strain Erdman, WT): 2 µg/mL (≈ 2.6 µM) | MIC90 (M. tuberculosis; read-out: In vitro MIC90, strain 1254, WT): 2 to 4 µg/mL (≈ 2.6 to 5.19 µM) | MIC90 (M. tuberculosis; read-out: In vitro MIC90, strain BC-DS1 (drug-susceptible)): 2 µg/mL (≈ 2.6 µM) | MIC90 (M. tuberculosis; read-out: In vitro MIC90, strain BC-DS3 (drug-susceptible)): 1 to 2 µg/mL (≈ 1.3 to 2.6 µM) | MIC90 (M. tuberculosis; read-out: In vitro MIC90, strain BC-DS4 (drug-susceptible)): 1 to 2 µg/mL (≈ 1.3 to 2.6 µM) | MIC90 (M. tuberculosis; read-out: In vitro MIC90, strain BC-DS5 (drug-susceptible)): 2 to 4 µg/mL (≈ 2.6 to 5.19 µM) | MIC90 (M. tuberculosis; read-out: In vitro MIC90, strain CDC 1551, WT): 1 µg/mL (≈ 1.3 µM) | sensitivity of the ivermectin-less-sensitive strains (M. tuberculosis; strains CI15072, CI12081, BC-MDR2, BC-DS4 and BC-DS5): unaffected | MIC90 (R. jostii): > 256 µg/mL | AUC ([3]; 24 mg/kg (topical)): 743.349 µg·h/mL | Cmax ([3]; 24 mg/kg (topical)): 5513 ng/mL | AUC ([3]; 24 mg/kg oral): 1109.933 µg·h/mL | Cmax ([3]; 24 mg/kg oral): 11929 ng/mL | MIC90 (A. baumannii): > 256 µg/mL | MIC90 (E. coli): > 256 µg/mL | Inhibitory effects [4]: not observed | MIC90 (M. bovis BCG): 4 µg/mL (≈ 5.19 µM) | MIC (M. gordonae): < 0.25 µg/mL | MIC90 (M. smegmatis): 4 µg/mL (≈ 5.19 µM) | oral dose found safe ([5]; 3-month repeated dose toxicity study in dogs): 40 mg/kg/day | doses reported to be safe ([5]; dogs): up to 24 mg/kg | toxicity in dogs lacking MDR1 P-glycoprotein / homozygous MDR1 mutation ([5]; ivermectin: extra-label use, selamectin, moxidectin: therapeutic doses): without any signs of toxicosis | MIC (M. aurum): 1 µg/mL (≈ 1.3 µM) | Cmax ([6]; Mouse (lung)): 7500 ng/mL | AUC ([6]; Mouse (plasma)): 62285.7 ng·h/mL | Cmax ([6]; Mouse (plasma)): 3714 ng/mL | MIC (M. avium; ATCC25291, M. avium ATCC 25291): 16 µg/mL (≈ 20.8 µM) | MIC (M. avium; M. avium 702): 64 µg/mL (≈ 83.1 µM) | MIC (M. avium; M. avium 715): 128 µg/mL (≈ 166 µM) | LD50 [7]: > 1,600 mg/kg body weight | doses reported to be safe [8]: up to 24 mg/kg | MIC90 (S. lividans): > 256 µg/mL | MIC90 (P. aeruginosa): > 256 µg/mL | safe dose extrapolated to a 70 kg adult (from 24 mg/kg in cats and dogs): 1,680 mg | safe dose extrapolated to humans (from 40 mg/kg/day in dogs): 2,800 mg/day | bactericidal profile ([9]; 21-day kill curves, various concentrations, H37Rv): strongest bactericidal profile | bactericidal or bacteriostatic ([9]; in vitro against M. tuberculosis, survival kinetics): Bactericidal | Cmax [10]: >1000 ng/mL | T½ [10]: 10.3 h

— patent US9308215B2, “Avermectins and milbemycins as anti-mycobacterial agents” (priority 2013, dated 2016)
